Measurements from patent US20240131028A1, “CHEMOVACCINATION AGAINST PLASMODIUM INFECTION WITH SELECTIVE PLASMEPSIN X INHIBITORS” (Merck Sharp & Dohme LLC, priority 2021, published 2024).
pEC50, pKi: −log10 of the molar value. “Also recorded” adds a separate entry of the source. Read-outs that look alike come from different tables or passages of the source.

Experiments:
[1] = molecular target: T1, PfPMIX (recombinant plasmepsin IX) (Plasmodium falciparum, UniProt Q8ILG2); experiment: FRET based assay for plasmepsin IX cleavage of RON3 peptide substrate; assay type: biochemical; settings: AVG, N=2, pH 5.5
T1 sequence (Q8ILG2 1-627): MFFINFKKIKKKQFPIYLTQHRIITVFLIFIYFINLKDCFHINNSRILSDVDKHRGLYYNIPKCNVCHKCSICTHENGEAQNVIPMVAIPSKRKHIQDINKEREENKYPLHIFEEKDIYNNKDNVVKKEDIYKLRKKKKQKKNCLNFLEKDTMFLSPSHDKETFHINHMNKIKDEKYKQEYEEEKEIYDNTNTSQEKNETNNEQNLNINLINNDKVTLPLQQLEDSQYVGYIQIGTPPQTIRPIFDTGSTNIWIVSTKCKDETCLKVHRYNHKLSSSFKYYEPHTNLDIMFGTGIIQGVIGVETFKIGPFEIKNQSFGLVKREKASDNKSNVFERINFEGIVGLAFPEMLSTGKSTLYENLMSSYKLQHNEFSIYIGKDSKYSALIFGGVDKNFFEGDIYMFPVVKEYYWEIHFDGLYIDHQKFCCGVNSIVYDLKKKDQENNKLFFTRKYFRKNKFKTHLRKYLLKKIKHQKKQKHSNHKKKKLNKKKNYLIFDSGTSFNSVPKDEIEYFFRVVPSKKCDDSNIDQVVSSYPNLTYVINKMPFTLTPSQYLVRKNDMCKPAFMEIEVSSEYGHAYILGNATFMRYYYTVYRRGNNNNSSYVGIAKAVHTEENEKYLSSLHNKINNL
Protocol: (§1) For cleavage assays, 10-point dilution series of the compounds (Compound EC50 determined by LDH assay) were prepared in 1536 well black low volume assay plates (Corning #3728) using an Acoustic Dispenser Echo555 (Labcyte). Appropriate volumes of 10 mM compound stocks were transferred into the assay plates starting at a top dose of 0.9 μM for PfPMX and 90 μM for PfPMIX in a 1:3 fold dilution series with 1% DMSO final concentration. IC50 values were analysed in Graphpad Prism software using a nonlinear regression four-parameter fit analysis. The equation used was sigmoidal dose response (variable slope), Y=bottom+[…].
(§2) All compound potency assays were conducted in 5 μl total volume. […] Samples were excited at 340 nm and fluorescence emission measured at 490 nm using PHERAstar FSX plate reader (BMG). […]
(§3) For cleavage assays, 10-point dilution series of the compounds, recombinant PMIX or PMX, and FRET peptide substrates were prepared in 1536 well plates. Samples were excited at 340 nm and fluorescence emission measured at 492 nm using an Envision fluorescence plate reader (Perkin-Elmer).
(§4) IC50 values were calculated by Dotmatics 5.3 and Spotfire 7.11.1 software using a nonlinear regression four-parameter fit analysis. […]

[2] = molecular target: PfPMX (recombinant plasmepsin X) (Plasmodium falciparum, UniProt Q8IAS0); experiment: FRET based assay for plasmepsin X cleavage of Rh2 peptide substrate; assay type: biochemical; settings: AVG, N=2, pH 5.5
Protocol: as §1, §2, §3, §4

[3] = test system: ring stage parasites (Pf); experiment: Parasite lactate dehydrogenase (LDH) growth assay (Parasite Assay, PfLDH Assay); assay type: cell-based, P. falciparum
[4] = test system: Plasmodium berghei sporozoites (PbmCherryLuci); experiment: Chemovaccination of mice: sporozoite liver infection, oral treatment, mosquito bite challenge; assay type: in vivo, Plasmodium berghei in C57BL/6 mice
Protocol: The indicated number of Plasmodium berghei sporozoites expressing mCherry and luciferase reporters (PbmCherryLuci) were inoculated intravenously, and compounds were administered to mice by oral gavage 36 and 48 hours after injection during liver infection. Plasmodium berghei liver infection levels and egress of parasites from the liver were measured by bioluminescence signal from the parasites using the luciferase reporter and an In Vivo Imaging System (IVIS, Perkin Elmer) at the peak of liver infection (52 hours post infection, hpi), during liver egress (55 hpi) as well as during the first round of blood infection (65 hpi). Initiation of blood infection was also measured by flow cytometry at 65 hpi using the mCherry reporter to determine the parasitemia of this first round of blood infection. These analyses allowed quantification of the efficacy of drug killing of parasites in the liver (52 hpi), preventing their egress from the liver (55 hpi) or preventing their successful infection of the blood (65 hpi). Mice were monitored by giemsa stained thin blood smears for the presence of parasites in the blood for 30 days post infection. If no blood infection was seen during the subsequent 30 days, the mice were declared cured of malaria infection thus indicating the chemoprophylactic activity of these compounds.
The chemoprophylactic activity of administered compounds is not to kill liver Plasmodium berghei parasites nor to prevent their egress from the liver, but rather that liver-derived merozoites were unable to initiate a blood infection in these mice. The parasites are thus attenuated by the administered compounds. Such parasite attenuation by genetic means is a powerful vaccination strategy, and as such cure of liver parasites by the compounds could simultaneously be considered as chemoprophylaxis as well as a chemovaccination strategy. Mice previously cured of liver infection with the administered compounds (Chemovaccinated) were challenged with bites from 10 PbmCherryLuci infected mosquitoes at the indicated times after cure of liver infection with the administered compounds to determine the level of immunity engendered by this chemovaccination approach.
C57BL/6 mice were administered Example 2, as described in the general procedure. Thirty nine mice were infected with 40,000 sporozoites. Twenty-one mice were untreated. Six C57BL/6 mice were administered 2×100 mg/kg of Example 2. Six C57BL/6 mice were administered 2×200 mg/kg. Six C57BL/6 mice were administered 2×500 mg/kg. Example 2 dosed at 2×100 mg/kg cured four of six mice of their infection, as did mice dosed with 2×200 mg/kg of Example 2. […] These infections and treatments can be considered immunizations or chemovaccinations, since the parasite is attenuated by Example 2 and is unable to initiate the blood infection.
Additionally, the eight mice previously chemovaccinated with 2×100 mg/kg and 2×200 mg/kg of Example 2 were challenged three months later with bites from 10 mosquitoes infected with PbmCherryLuci sporozoites.

[5] = eight mice chemovaccinated once with 2×100 or 2×200 mg/kg, challenged three months later, bites from 10 infected mosquitoes
[6] = Plasmodium falciparum, 72 h, Table 4, 72 hours growth, LDH readout, read-out: EC50 (Table 4)
[7] = Table 4, 72 hours growth, LDH readout, read-out: EC50 (Table 4)

Sequence of PfPMX (recombinant plasmepsin X) (Q8IAS0 222-573): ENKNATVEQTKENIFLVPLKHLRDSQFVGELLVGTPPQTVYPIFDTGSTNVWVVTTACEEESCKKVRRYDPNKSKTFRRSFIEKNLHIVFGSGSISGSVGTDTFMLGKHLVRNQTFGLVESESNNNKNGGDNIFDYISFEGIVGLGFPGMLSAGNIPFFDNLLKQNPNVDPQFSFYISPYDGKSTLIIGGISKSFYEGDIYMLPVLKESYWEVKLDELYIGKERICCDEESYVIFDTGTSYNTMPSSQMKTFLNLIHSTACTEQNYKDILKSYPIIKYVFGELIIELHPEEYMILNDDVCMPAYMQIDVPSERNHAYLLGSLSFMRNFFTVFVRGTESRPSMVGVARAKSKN

## CCC1(CC)CC(=O)N([C@H](c2cccnc2)[C@H]2C[C@@H]2C(=O)N[C@H]2CC(C)(C)Oc3ccccc32)C(=N)N1 [Example 2, (1S,2S)-2-((S)-(4,4-diethyl-2-imino-6-oxotetrahydropyrimidin-1(2H)-yl)(pyridin-3-yl)methyl)-N—((S)-2,2-dimethylchroman-4-yl)cyclopropanecarboxamide]
[1]
  pKi: 8.23
[2]
  pKi: 10.59
[3]; Plasmodium falciparum, 72 h, Table 3, 72 hours growth, LDH readout, read-out: EC50
  pEC50: 9.05
[3]; Plasmodium falciparum, Table 6, AVG, N=3, read-out: PfLDH Assay (EC50)
  pEC50: 9.07
[4]; 2×100 mg/kg oral gavage 36 and 48 h after 40,000 sporozoites i.v., 30 days monitoring
  mice cured of their infection: four of six
[4]; 2×200 mg/kg oral gavage 36 and 48 h after 40,000 sporozoites i.v., 30 days monitoring
  mice cured of their infection: four of six
[4]; 2×500 mg/kg oral gavage 36 and 48 h after 40,000 sporozoites i.v., 30 days monitoring, FIG. 1
  mice cured of their infection (chemoprophylaxis): cured all mice of their infection; also recorded: never got malaria
[4]; 2×500 mg/kg twice, challenged 3 months later, bites from 10 infected mosquitoes, FIG. 2
  protection from infection upon mosquito bite challenge after two immunizations: completely protected from infection
[4]; 2×500 mg/kg twice, mosquito bite challenge 3 months later, FIG. 2
  protection after two immunizations: 100%
[4]; [5]
  development of malaria disease after challenge, one immunization: all mice ultimately developed malaria disease
  infection upon mosquito bite challenge after one immunization: showed a reduction in infection upon challenge
[4]; six mice, six weeks later 20,000 sporozoites, 2×500 mg/kg
  cure of second infection (boost immunization): cured them of this second infection

## CC1(C)CC(=O)N(C[C@H]2C[C@@H]2C(=O)N[C@H]2CC(C3CC3)Oc3ccccc32)C(=N)N1 (stereo partly shown) [Example 140B]
[3]; Table 3, 72 hours growth, LDH readout, read-out: EC50
  pEC50: 6.55

## CCC1(CC)CC(=O)N([C@H](CCOC)[C@H]2C[C@@H]2C(=O)N[C@@H]2CC(C)(C)Oc3ccccc32)C(=N)N1 [Example 141]
[3]; [6]
  pEC50: 8.33

## CCC1(CC)CC(=O)N([C@H](CCOC)[C@H]2C[C@@H]2C(=O)N[C@H]2c3ccccc3OC(C)(C)[C@@H]2O)C(=N)N1 [Example 144]
[3]; [6]
  pEC50: 6.78

## CCC1(CC)CC(=O)N([C@H](CCOC)[C@H]2C[C@@H]2C(=O)N[C@@H]2c3ccccc3OC(C)(C)[C@H]2O)C(=N)N1 [Example 145]
[3]; [6]
  pEC50: 8.08

## CCC1(CC)CC(=O)N([C@H](CCOC)[C@H]2C[C@@H]2C(=O)N[C@H]2CC(C)(C)Oc3ccc(Cl)cc32)C(=N)N1 [Example 146]
[3]; [6]
  pEC50: 8.96

## CCC1(CC)CC(=O)N([C@H](CCOC)[C@H]2C[C@@H]2C(=O)NC2CC(C)(C)Oc3c(Cl)cccc32)C(=N)N1 (stereo partly shown) [Example 148A]
[3]; [6]
  pEC50: 8.57

## CCC1(CC)CC(=O)N([C@H](CCOC)[C@H]2C[C@@H]2C(=O)NC2CC(C)(C)Oc3c(Cl)cccc32)C(=N)N1 (stereo partly shown) [Example 148B]
[3]; [7]
  pEC50: 8.72

## CCC1(CC)CC(=O)N([C@H](CCOC)[C@H]2C[C@@H]2C(=O)NC2CC(C)(C)Oc3cccc(Cl)c32)C(=N)N1 (stereo partly shown) [Example 149A]
[3]; [6]
  pEC50: 9.00

## CCC1(CC)CC(=O)N([C@H](CCOC)[C@H]2C[C@@H]2C(=O)NC2CC(C)(C)Oc3cccc(Cl)c32)C(=N)N1 (stereo partly shown) [Example 149B]
[3]; [7]
  pEC50: 8.92

## CCC1(CC)CC(=O)N([C@H](CCOC)[C@H]2C[C@@H]2C(=O)NC2c3cc(Cl)ccc3OC(C)(C)[C@H]2O)C(=N)N1 (stereo partly shown) [Example 150]
[3]; [6]
  pEC50: 8.41
